Source: patent US20080194585A1, “Fungicidal Pyrazine Derivatives” (priority 2005, published 2008)
Marks after values point to notes of the source that are not given here.

Experiments:
Conditions in all cases: 100 = 100% disease control, 0 = no control
Pythium aphanidermatum = experiment: Test A: bluegrass pythium blight, preventive spray on bluegrass seedlings
Botrytis cinerea = experiment: Test E: tomato botrytis, preventive spray on tomato seedlings
[1] = tested on: Colletotrichum orbiculare; experiment: Test B: cucumber Colletotrichum anthracnose, preventive spray on cucumber seedlings
fusarium graminearium = experiment: Test I: wheat head scab, preventive spray on wheat seedlings
Protocol: (the causal agent of wheat head scab) and incubated in a saturated atmosphere at 20° C. for 72 h, and then moved to a growth chamber at 22° C. for 5 days, after which disease ratings were made.

Phytophthora infestans = experiment: whole plant or invertebrate; assay type: in vivo
Plasmopara viticola = experiment: Test D: grape downy mildew, spray after inoculation of grape seedlings; assay type: in vivo
Text: Upon removal, disease ratings were made. […] A dash (-) indicates no test results.

[2] = tested on: Erysiphe graminis f. sp. tritici; experiment: Test L: wheat powdery mildew, preventive spray on wheat seedlings
Septoria nodorum = experiment: Test H: wheat glum blotch, preventive spray on wheat seedlings
Protocol: (the causal agent of wheat glum blotch) and incubated in a saturated atmosphere at 20° C. for 48 h, and then moved to a growth chamber at 22° C. for 5 days, after which disease ratings were made.

Rhizoctonia oryzae = experiment: Test G: turf brown patch, preventive spray on creeping bent grass seedlings
Protocol: (the causal agent of turf brown patch) and incubated in a saturated atmosphere at 27° C. for 24 h, and then moved to a growth chamber at 27° C. for 5 days, after which disease ratings were made.

Septoria tritici = experiment: Test J: wheat leaf blotch, preventive spray on wheat seedlings; assay type: in vivo
Text: A dash (-) indicates no test results.

[3] = tested on: Puccinia recondita f. sp. tritici; experiment: Test K: wheat leaf rust, preventive spray on wheat seedlings

Cc1ccn(-c2nc(Cl)c(-c3ccc(F)cc3Cl)n(-c3ccccc3)c2=O)n1 [compound 323]
Test A disease control rating (Pythium aphanidermatum; 40 ppm (marked *)): 0* % | Test E disease control rating (Botrytis cinerea; 40 ppm (marked *)): 99* % | Test B disease control rating ([1]; 40 ppm (marked *)): 78* % | Test I disease control rating (fusarium graminearium; 40 ppm (marked *)): 0* % | Test F disease control rating (Phytophthora infestans; 40 ppm (marked *)): 0* % | Test D disease control rating (Plasmopara viticola; 40 ppm (marked *)): 0* % | Test L disease control rating ([2]; 40 ppm (marked *)): 0* % | Test H disease control rating (Septoria nodorum; 40 ppm (marked *)): 97* % | Test G disease control rating (Rhizoctonia oryzae; 40 ppm (marked *)): 16* % | Test J disease control rating (Septoria tritici; 40 ppm (marked *)): 100* % | Test K disease control rating ([3]; 40 ppm (marked *)): 96* %

CC(C)Cn1c(-c2c(F)cccc2F)c(Cl)nc(-n2cccc2C#N)c1=O [compound 325]
Test A disease control rating (Pythium aphanidermatum; 40 ppm (marked *)): 0* % | Test E disease control rating (Botrytis cinerea; 40 ppm (marked *)): 0* % | Test B disease control rating ([1]; 40 ppm (marked *)): 0* % | Test I disease control rating (fusarium graminearium; 40 ppm (marked *)): 0* % | Test F disease control rating (Phytophthora infestans; 40 ppm (marked *)): 0* % | Test D disease control rating (Plasmopara viticola; 40 ppm (marked *)): 0* % | Test L disease control rating ([2]; 40 ppm (marked *)): 0* % | Test H disease control rating (Septoria nodorum; 200 ppm): 0% | Test G disease control rating (Rhizoctonia oryzae; 40 ppm (marked *)): 0* % | Test J disease control rating (Septoria tritici; 40 ppm (marked *)): 7* % | Test K disease control rating ([3]; 200 ppm): 0%

Cc1cccc(-n2c(-c3c(F)cccc3F)c(Cl)nc(-n3cccn3)c2=O)c1 [compound 326]
Test A disease control rating (Pythium aphanidermatum; 40 ppm (marked *)): 0* % | Test E disease control rating (Botrytis cinerea; 40 ppm (marked *)): 99* % | Test B disease control rating ([1]; 40 ppm (marked *)): 0* % | Test I disease control rating (fusarium graminearium; 40 ppm (marked *)): 0* % | Test F disease control rating (Phytophthora infestans; 40 ppm (marked *)): 0* % | Test D disease control rating (Plasmopara viticola; 40 ppm (marked *)): 0* % | Test L disease control rating ([2]; 40 ppm (marked *)): 94* % | Test H disease control rating (Septoria nodorum; 40 ppm (marked *)): 100* % | Test G disease control rating (Rhizoctonia oryzae; 40 ppm (marked *)): 16* % | Test J disease control rating (Septoria tritici; 40 ppm (marked *)): 97* % | Test K disease control rating ([3]; 40 ppm (marked *)): 97* %

Cc1cccc(-n2c(-c3c(F)cccc3F)c(Cl)nc(-n3ccc(C)n3)c2=O)c1 [compound 327]
Test A disease control rating (Pythium aphanidermatum; 40 ppm (marked *)): 93* % | Test E disease control rating (Botrytis cinerea; 40 ppm (marked *)): 99* % | Test B disease control rating ([1]; 40 ppm (marked *)): 37* % | Test I disease control rating (fusarium graminearium; 40 ppm (marked *)): 0* % | Test F disease control rating (Phytophthora infestans; 40 ppm (marked *)): 0* % | Test D disease control rating (Plasmopara viticola; 40 ppm (marked *)): 0* % | Test L disease control rating ([2]; 40 ppm (marked *)): 78* % | Test H disease control rating (Septoria nodorum; 40 ppm (marked *)): 98* % | Test G disease control rating (Rhizoctonia oryzae; 40 ppm (marked *)): 0* % | Test J disease control rating (Septoria tritici; 40 ppm (marked *)): 97* % | Test K disease control rating ([3]; 40 ppm (marked *)): 95* %

Cc1ccccc1-n1c(-c2c(F)cccc2F)c(Cl)nc(-n2cccn2)c1=O [compound 328]
Test A disease control rating (Pythium aphanidermatum; 40 ppm (marked *)): 0* % | Test E disease control rating (Botrytis cinerea; 40 ppm (marked *)): 99* % | Test B disease control rating ([1]; 40 ppm (marked *)): 0* % | Test I disease control rating (fusarium graminearium; 40 ppm (marked *)): 31* % | Test F disease control rating (Phytophthora infestans; 40 ppm (marked *)): 0* % | Test D disease control rating (Plasmopara viticola; 40 ppm (marked *)): 0* % | Test L disease control rating ([2]; 40 ppm (marked *)): 88* % | Test H disease control rating (Septoria nodorum; 40 ppm (marked *)): 100* % | Test G disease control rating (Rhizoctonia oryzae; 40 ppm (marked *)): 87* % | Test J disease control rating (Septoria tritici; 40 ppm (marked *)): 100* % | Test K disease control rating ([3]; 40 ppm (marked *)): 98* %

Cc1ccn(-c2nc(Cl)c(-c3c(F)cccc3F)n(-c3ccccc3C)c2=O)n1 [compound 329]
Test A disease control rating (Pythium aphanidermatum; 40 ppm (marked *)): 83* % | Test E disease control rating (Botrytis cinerea; 40 ppm (marked *)): 99* % | Test B disease control rating ([1]; 40 ppm (marked *)): 31* % | Test I disease control rating (fusarium graminearium; 40 ppm (marked *)): 0* % | Test F disease control rating (Phytophthora infestans; 40 ppm (marked *)): 0* % | Test D disease control rating (Plasmopara viticola; 40 ppm (marked *)): 0* % | Test L disease control rating ([2]; 40 ppm (marked *)): 76* % | Test H disease control rating (Septoria nodorum; 40 ppm (marked *)): 100* % | Test G disease control rating (Rhizoctonia oryzae; 40 ppm (marked *)): 26* % | Test J disease control rating (Septoria tritici; 40 ppm (marked *)): 100* % | Test K disease control rating ([3]; 40 ppm (marked *)): 96* %

O=c1c(-n2cccn2)nc(Cl)c(-c2c(F)cc(F)cc2F)n1Cc1cccc(Br)c1 [compound 344]
Test A disease control rating (Pythium aphanidermatum; 200 ppm): 0% | Test E disease control rating (Botrytis cinerea; 40 ppm (marked *)): 92* % | Test B disease control rating ([1]; 40 ppm (marked *)): 0* % | Test I disease control rating (fusarium graminearium; 200 ppm): 93% | Test F disease control rating (Phytophthora infestans; 200 ppm): 0% | Test D disease control rating (Plasmopara viticola; 200 ppm): 0% | Test L disease control rating ([2]; 40 ppm (marked *)): 0* % | Test H disease control rating (Septoria nodorum; 40 ppm (marked *)): 99* % | Test G disease control rating (Rhizoctonia oryzae; 40 ppm (marked *)): 16* % | Test J disease control rating (Septoria tritici; 40 ppm (marked *)): 100* % | Test K disease control rating ([3]; 40 ppm (marked *)): 99* %

O=c1c(-n2cccn2)nc(Cl)c(-c2c(F)cc(F)cc2F)n1Cc1ccccc1Br [compound 345]
Test A disease control rating (Pythium aphanidermatum; 200 ppm): 0% | Test E disease control rating (Botrytis cinerea; 40 ppm (marked *)): 98* % | Test B disease control rating ([1]; 40 ppm (marked *)): 88* % | Test I disease control rating (fusarium graminearium; 200 ppm): 91% | Test F disease control rating (Phytophthora infestans; 200 ppm): 0% | Test D disease control rating (Plasmopara viticola; 200 ppm): 0% | Test L disease control rating ([2]; 40 ppm (marked *)): 88* % | Test H disease control rating (Septoria nodorum; 40 ppm (marked *)): 99* % | Test G disease control rating (Rhizoctonia oryzae; 40 ppm (marked *)): 31* % | Test J disease control rating (Septoria tritici; 40 ppm (marked *)): 100* % | Test K disease control rating ([3]; 40 ppm (marked *)): 100* %

O=c1c(-n2cccn2)nc(Cl)c(-c2c(F)cc(F)cc2F)n1Cc1ccc(C(F)(F)F)cc1 [compound 346]
Test A disease control rating (Pythium aphanidermatum; 200 ppm): 0% | Test E disease control rating (Botrytis cinerea; 40 ppm (marked *)): 0* % | Test B disease control rating ([1]; 40 ppm (marked *)): 0* % | Test I disease control rating (fusarium graminearium; 200 ppm): 0% | Test F disease control rating (Phytophthora infestans; 200 ppm): 0% | Test D disease control rating (Plasmopara viticola; 200 ppm): 0% | Test L disease control rating ([2]; 40 ppm (marked *)): 0* % | Test H disease control rating (Septoria nodorum; 40 ppm (marked *)): 0* % | Test G disease control rating (Rhizoctonia oryzae; 40 ppm (marked *)): 0* % | Test J disease control rating (Septoria tritici; 40 ppm (marked *)): 13* % | Test K disease control rating ([3]; 40 ppm (marked *)): 74* %

O=c1c(-n2cccn2)nc(Cl)c(-c2c(F)cc(F)cc2F)n1Cc1cccc(C(F)(F)F)c1 [compound 347]
Test A disease control rating (Pythium aphanidermatum; 200 ppm): 0% | Test E disease control rating (Botrytis cinerea; 40 ppm (marked *)): 0* % | Test B disease control rating ([1]; 40 ppm (marked *)): 0* % | Test I disease control rating (fusarium graminearium; 200 ppm): 0% | Test F disease control rating (Phytophthora infestans; 200 ppm): 0% | Test D disease control rating (Plasmopara viticola; 200 ppm): 0% | Test L disease control rating ([2]; 40 ppm (marked *)): 25* % | Test H disease control rating (Septoria nodorum; 40 ppm (marked *)): 0* % | Test G disease control rating (Rhizoctonia oryzae; 40 ppm (marked *)): 0* % | Test J disease control rating (Septoria tritici; 40 ppm (marked *)): 83* % | Test K disease control rating ([3]; 40 ppm (marked *)): 93* %

O=c1c(-n2cccn2)nc(Cl)c(-c2c(F)cc(F)cc2F)n1Cc1ccccc1C(F)(F)F [compound 348]
Test A disease control rating (Pythium aphanidermatum; 200 ppm): 0% | Test E disease control rating (Botrytis cinerea; 40 ppm (marked *)): 90* % | Test B disease control rating ([1]; 40 ppm (marked *)): 0* % | Test I disease control rating (fusarium graminearium; 200 ppm): 0% | Test F disease control rating (Phytophthora infestans; 200 ppm): 0% | Test D disease control rating (Plasmopara viticola; 200 ppm): 0% | Test L disease control rating ([2]; 40 ppm (marked *)): 44* % | Test H disease control rating (Septoria nodorum; 40 ppm (marked *)): 64* % | Test G disease control rating (Rhizoctonia oryzae; 40 ppm (marked *)): 16* % | Test J disease control rating (Septoria tritici; 40 ppm (marked *)): 99* % | Test K disease control rating ([3]; 40 ppm (marked *)): 97* %

CCC(C)Cn1c(-c2c(F)cccc2F)c(Cl)nc(C(=O)NCCO)c1=O (stereo not shown) [compound 349]
Test A disease control rating (Pythium aphanidermatum; 200 ppm): 0% | Test E disease control rating (Botrytis cinerea; 40 ppm (marked *)): 0* % | Test B disease control rating ([1]; 40 ppm (marked *)): 0* % | Test I disease control rating (fusarium graminearium; 200 ppm): 0% | Test F disease control rating (Phytophthora infestans; 200 ppm): 0% | Test D disease control rating (Plasmopara viticola; 200 ppm): 0% | Test L disease control rating ([2]; 40 ppm (marked *)): 0* % | Test H disease control rating (Septoria nodorum; 40 ppm (marked *)): 0* % | Test G disease control rating (Rhizoctonia oryzae; 40 ppm (marked *)): 0* % | Test J disease control rating (Septoria tritici; 40 ppm (marked *)): 25* % | Test K disease control rating ([3]; 40 ppm (marked *)): 96* %

CC(C)Cn1c(-c2c(F)cccc2F)c(Cl)nc(-c2cnccn2)c1=O [compound 350]
Test A disease control rating (Pythium aphanidermatum; 200 ppm): 80% | Test E disease control rating (Botrytis cinerea; 200 ppm): 98% | Test B disease control rating ([1]; 200 ppm): 0% | Test I disease control rating (fusarium graminearium; 200 ppm): 80% | Test F disease control rating (Phytophthora infestans; 200 ppm): 0% | Test D disease control rating (Plasmopara viticola; 200 ppm): 0% | Test L disease control rating ([2]; 200 ppm): 86% | Test H disease control rating (Septoria nodorum; 200 ppm): 98% | Test G disease control rating (Rhizoctonia oryzae; 200 ppm): 99% | Test J disease control rating (Septoria tritici; 200 ppm): 85% | Test K disease control rating ([3]; 200 ppm): 99%

O=c1c(-n2cccn2)nc(Cl)c(-c2c(F)cc(F)cc2F)n1-c1cccc(Br)c1 [compound 351]
Test A disease control rating (Pythium aphanidermatum; 200 ppm): 0% | Test E disease control rating (Botrytis cinerea; 40 ppm (marked *)): 99* % | Test B disease control rating ([1]; 40 ppm (marked *)): 99* % | Test I disease control rating (fusarium graminearium; 200 ppm): 78% | Test F disease control rating (Phytophthora infestans; 200 ppm): 0% | Test D disease control rating (Plasmopara viticola; 200 ppm): 0% | Test L disease control rating ([2]; 40 ppm (marked *)): 100* % | Test H disease control rating (Septoria nodorum; 40 ppm (marked *)): 99* % | Test G disease control rating (Rhizoctonia oryzae; 40 ppm (marked *)): 0* % | Test J disease control rating (Septoria tritici; 40 ppm (marked *)): 100* % | Test K disease control rating ([3]; 40 ppm (marked *)): 100* %
